The text below walks through data of patent US6077869A, “Aryl phenylhydrazides as selective COX-2 inhibitors for treatment of inflammation” (Ortho-McNeil Pharmaceutical, Inc., priority 1999, dated 2000).

The target in one assay is cyclooxygenase 1 (COX-1). The assay is described as follows: Procedure II: cyclooxygenase 1 activity (6226). Conditions: RBL-1 cell homogenate supernatant. The assay is classed as biochemical, Rat. The method, then: [Worded in the source for another target; this target is reported under the same test.] Rat basophilic leukemia cells (RBL-1; 5×10^7 viable cells/mL) were disrupted by homogenization on ice (four 20 sec bursts) with a Brinkman polytron. […] The pellet was discarded and the supernatant was saved as the source of enzymes. The supernatant was pre-incubated for five minutes at 37° C. in the presence of 2 mM of CaCl2 and compound or vehicle (1% DMSO). The conversion of AA into products by CO and LO was initiated by adding 10 μL (50 μCi) of 1-^14 C-AA to each tube and incubated at 37° C. for 20 minutes. The reaction was stopped by adjusting the pH of each sample to 3 to 3.5 with 2 M formic acid. Samples were extracted with three volumes of chloroform to isolate the products of 5-LO formed during the reaction. Fractions were dried under nitrogen, then resuspended in 40 μL of chloroform and spotted onto silica gel HL plates.
The plates were developed in A-9 solvent. The dried plates were analyzed using a Bioscan Imaging TLC scanner to determine the percentage of radiolabelled AA converted to 5-HETE (LO product) in each sample. The percentage of inhibition was calculated by:
[1-(5-HETE test)]/5-HETE control×100=% inhibition The IC50 was determined using a curve fit in Cricket Graph (Computer Associated), which provided the equation of the regressed line used in the calculation.

The next assay concerns the target cyclooxygenase 2 (COX-2). The experiment in a line: Procedure I: ability of the compounds to inhibit cyclooxygenase 2 (6217/6218). The assay is classed as biochemical, Sheep. Conditions: Wh Cell.

Usually IC50 stands for the concentration needed to halve the response being measured. Low readings indicate greater potency in that assay, high ones weaker potency in that assay. With `O=C(NNc1ccc(Cl)cc1)c1ccc(Cl)cc1` [Example 1], the IC50 is over 10 µM against cyclooxygenase 1 (COX-1) and 0.34 µM against cyclooxygenase 2 (COX-2).

Turning to `O=C(NNc1ccccc1)c1ccccc1` [Example 2], the concentration for half-maximal inhibition (IC50) is over 10 µM against cyclooxygenase 1 (COX-1) and 10 µM at cyclooxygenase 2 (COX-2).

Regarding `O=C(NNc1ccccc1)c1ccc(Cl)cc1` [Example 3], the IC50 at cyclooxygenase 1 (COX-1) was over 10 µM; against cyclooxygenase 2 (COX-2) it was 0.33 µM.

`Cc1ccc(NNC(=O)c2ccccc2)cc1` [Example 4]: the concentration for half-maximal inhibition (IC50) was over 10 µM against cyclooxygenase 1 (COX-1) and 0.33 µM at cyclooxygenase 2 (COX-2).

On to `O=C(NNc1ccc(Cl)cc1)c1ccccc1` [Example 5], for which the half-inhibitory concentration (IC50) was over 10 µM against cyclooxygenase 1 (COX-1) and 0.53 µM at cyclooxygenase 2 (COX-2).

Regarding `CS(=O)(=O)c1ccc(NNC(=O)c2ccccc2)cc1` [Example 6], the half-maximal inhibitory concentration (IC50) against cyclooxygenase 1 (COX-1) and on cyclooxygenase 2 (COX-2) was over 10 µM in each case.

`Cc1ccc(NNC(=O)c2ccc(Cl)cc2)cc1` [Example 7]: the IC50 at cyclooxygenase 1 (COX-1) is over 10 µM; at cyclooxygenase 2 (COX-2), 0.01 µM.

`CS(=O)(=O)c1ccc(NNC(=O)c2ccc(Cl)cc2)cc1` [Example 8]: the IC50 against cyclooxygenase 1 (COX-1) and against cyclooxygenase 2 (COX-2) was over 10 µM each time.

Consider `COc1ccc(C(=O)NNc2ccc(Cl)cc2)cc1` [Example 9], for which the IC50 on cyclooxygenase 1 (COX-1) is over 10 µM; against cyclooxygenase 2 (COX-2) it was 0.47 µM.

The compound `COc1ccc(NNC(=O)c2ccc(Cl)cc2)cc1` [Example 10] gave an IC50 at cyclooxygenase 2 (COX-2) of 0.13 µM.

`COc1ccc(C(=O)NNc2ccccc2)cc1` [Example 11]: the IC50 at cyclooxygenase 1 (COX-1) and on cyclooxygenase 2 (COX-2) was over 10 µM throughout.

With `COc1ccc(NNC(=O)c2ccccc2)cc1` [Example 12], the concentration for half-maximal inhibition (IC50) on cyclooxygenase 1 (COX-1) is over 10 µM; on cyclooxygenase 2 (COX-2), 0.18 µM.
